Results published in article PMC4167230, “Hydrophobic Substituents of the Phenylmethylsulfamide Moiety Can Be Used for the Development of New Selective Carbonic Anhydrase Inhibitors” (BioMed Research International, 2014).

Tests used:
Test in all cases: stopped-flow CO2 hydration assay
Format in all cases: biochemical
[1] = biological target: T1, hCA I (Homo sapiens, UniProt P00915); settings: read-out: K I (nM)∗ / hCA I
T1 construct: gene CA1; cytosolic isoform
Text: stopped-flow CO2 hydration assay on hCA I

[2] = biological target: T2, hCA II (Homo sapiens, UniProt P00918); settings: read-out: K I (nM)∗ / hCA II
T2 construct: gene CA2; cytosolic isoform; one molecule in the asymmetric unit
Text: stopped-flow CO2 hydration assay on hCA II

[3] = biological target: T3, hCA XII (Homo sapiens, UniProt O43570); settings: read-out: K I (nM)∗ / hCA XII
T3 construct: gene CA12; transmembrane isoform
Text: stopped-flow CO2 hydration assay on hCA XII

T1 sequence (P00915 2-261): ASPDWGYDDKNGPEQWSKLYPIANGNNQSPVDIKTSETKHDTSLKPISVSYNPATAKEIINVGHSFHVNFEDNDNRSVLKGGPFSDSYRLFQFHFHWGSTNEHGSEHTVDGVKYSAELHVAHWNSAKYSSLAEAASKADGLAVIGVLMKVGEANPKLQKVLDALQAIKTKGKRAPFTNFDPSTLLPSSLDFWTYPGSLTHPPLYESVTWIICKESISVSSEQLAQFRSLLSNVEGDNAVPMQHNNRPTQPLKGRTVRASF
T3 sequence (O43570 25-354): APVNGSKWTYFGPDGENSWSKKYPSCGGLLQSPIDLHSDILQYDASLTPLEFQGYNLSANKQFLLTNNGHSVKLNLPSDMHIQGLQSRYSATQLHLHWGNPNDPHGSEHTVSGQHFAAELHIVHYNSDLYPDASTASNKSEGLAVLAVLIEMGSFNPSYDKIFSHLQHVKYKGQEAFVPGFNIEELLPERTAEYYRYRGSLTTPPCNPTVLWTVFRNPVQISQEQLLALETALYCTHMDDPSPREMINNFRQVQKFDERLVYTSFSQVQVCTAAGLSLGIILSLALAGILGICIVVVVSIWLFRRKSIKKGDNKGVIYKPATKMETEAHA

Compound	Ki [1] [nM]	Ki [2] [nM]	Ki [3] [nM]
COc1ccc(CNS(N)(=O)=O)cc1 [compound 12, N-(4-Methoxybenzyl)sulfuric Diamide]	4050	134	6.6
CC#CCOc1ccc(CNS(N)(=O)=O)cc1 [compound 14, N-[4-(But-2-yn-1-yloxy)benzyl]sulfuric Diamide]	1810	9.5	8.1
Cc1cc(COc2ccc(CNS(N)(=O)=O)cc2)c2ccccc2n1 [compound 16, N-{4-[(2-Methylquinolin-4-yl)methoxy]benzyl}sulfuric Diamide]	1440	43.3	6.6
CC#CCOc1ccc(C=NS(N)(=O)=O)cc1 [compound 13, N-([4-(But-2-yn-1-yloxy)phenyl]methylidene)sulfuric Diamide]	1940	9.8	8.4
Cc1cc(COc2ccc(C=NS(N)(=O)=O)cc2)c2ccccc2n1 [compound 15, N-({4-[(2-Methylquinolin-4-yl)methoxy]phenyl}methylidene)sulfuric Diamide]	1650	188	6.5
NS(=O)(=O)NCc1ccc(O)cc1 [compound 11, N-(4-Hydroxybenzyl)sulfuric Diamide]	2180	74.1	5.8
